# Measured values: PubChem BioAssay (NCI)
#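 1) Cells in 96-well plates. 2) Compound, 48 h, 5 concentrations. 3) Linear interpolation between surrounding doses. 4) Unreached endpoint = highest concentration. TGI marks complete inhibition of growth.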
# How the values were obtained:
# Assay in all cases: growth of human tumour cells (NCI), 48 h
# MCF7 breast = tested on: MCF7 breast
# HCT-116 colon = tested on: HCT-116 colon
# LOX IMVI melanoma = tested on: LOX IMVI melanoma
# NCI-H226 lung = tested on: NCI-H226 lung
# SN12C renal = tested on: SN12C renal
# HT29 colon = tested on: HT29 colon
# RPMI-8226 leukemia = tested on: RPMI-8226 leukemia
# SNB-75 CNS = tested on: SNB-75 CNS
# BT-549 breast = tested on: BT-549 breast
# UACC-257 melanoma = tested on: UACC-257 melanoma
# SF-295 CNS = tested on: SF-295 CNS
# NCI-H460 lung = tested on: NCI-H460 lung
# HOP-92 NSCLC = tested on: HOP-92 NSCLC
# MALME-3M melanoma = tested on: MALME-3M melanoma
# SF-268 CNS = tested on: SF-268 CNS
# UACC-62 melanoma = tested on: UACC-62 melanoma
# K-562 leukemia = tested on: K-562 leukemia
# HCC-2998 colon = tested on: HCC-2998 colon
# SW-620 colon = tested on: SW-620 colon
# M14 melanoma = tested on: M14 melanoma
# TK-10 renal = tested on: TK-10 renal
# MOLT-4 leukemia = tested on: MOLT-4 leukemia
# T-47D breast = tested on: T-47D breast
# HCT-15 colon = tested on: HCT-15 colon
# SNB-19 CNS = tested on: SNB-19 CNS
# NCI/ADR-RES ovarian = tested on: NCI/ADR-RES ovarian
# SK-MEL-5 melanoma = tested on: SK-MEL-5 melanoma
# KM12 colon = tested on: KM12 colon
# MDA-MB-435 = tested on: MDA-MB-435
# HS 578T breast = tested on: HS 578T breast
# NCI-H522 lung = tested on: NCI-H522 lung
# COLO 205 colon = tested on: COLO 205 colon
# NCI-H23 lung = tested on: NCI-H23 lung
# EKVX NSCLC = tested on: EKVX NSCLC
# PC-3 prostate = tested on: PC-3 prostate
# SK-MEL-2 melanoma = tested on: SK-MEL-2 melanoma
# CCRF-CEM leukemia = tested on: CCRF-CEM leukemia
# MDA-N = tested on: MDA-N
# UO-31 renal = tested on: UO-31 renal
# SR leukemia = tested on: SR leukemia
# OVCAR-5 ovarian = tested on: OVCAR-5 ovarian
# RXF 393 renal = tested on: RXF 393 renal
# MDA-MB-231 breast = tested on: MDA-MB-231 breast
# SK-OV-3 ovarian = tested on: SK-OV-3 ovarian
# HOP-62 NSCLC = tested on: HOP-62 NSCLC
# HL-60(TB) leukemia = tested on: HL-60(TB) leukemia
# U251 CNS = tested on: U251 CNS
# ACHN renal = tested on: ACHN renal
# DU-145 prostate = tested on: DU-145 prostate
# A549 NSCLC = tested on: A549 NSCLC
# OVCAR-3 ovarian = tested on: OVCAR-3 ovarian
# SK-MEL-28 melanoma = tested on: SK-MEL-28 melanoma
# 786-0 renal = tested on: 786-0 renal
# A498 renal = tested on: A498 renal
# CAKI-1 renal = tested on: CAKI-1 renal
# IGROV1 ovarian = tested on: IGROV1 ovarian
# OVCAR-4 ovarian = tested on: OVCAR-4 ovarian
# OVCAR-8 ovarian = tested on: OVCAR-8 ovarian
# SF-539 CNS = tested on: SF-539 CNS
compound,measurement,setting,value
O=C(Nn1cc(F)c(=O)[nH]c1=O)C12CC3CC(CC(C3)C1)C2,TGI,MCF7 breast,> 100 µM
same,TGI,HCT-116 colon,24.9 µM
same,TGI,LOX IMVI melanoma,27.8 µM
same,TGI,NCI-H226 lung,> 100 µM
same,TGI,SN12C renal,> 100 µM
same,TGI,HT29 colon,37.1 µM
same,TGI,RPMI-8226 leukemia,42.5 µM
same,TGI,SNB-75 CNS,80.1 µM
same,TGI,BT-549 breast,79.3 µM
same,TGI,UACC-257 melanoma,> 100 µM
same,TGI,SF-295 CNS,> 100 µM
same,TGI,NCI-H460 lung,19.7 µM
same,TGI,HOP-92 NSCLC,42.6 µM
same,TGI,MALME-3M melanoma,32.2 µM
same,TGI,SF-268 CNS,98.2 µM
same,TGI,UACC-62 melanoma,24.4 µM
same,TGI,K-562 leukemia,> 75.9 µM
same,TGI,HCC-2998 colon,18.4 µM
same,TGI,SW-620 colon,> 96.4 µM
same,TGI,M14 melanoma,> 72.6 µM
same,TGI,TK-10 renal,> 86.8 µM
same,TGI,MOLT-4 leukemia,47.9 µM
same,TGI,T-47D breast,> 80.2 µM
same,TGI,HCT-15 colon,25.6 µM
same,TGI,SNB-19 CNS,> 100 µM
same,TGI,NCI/ADR-RES ovarian,> 100 µM
same,TGI,SK-MEL-5 melanoma,12.2 µM
same,TGI,KM12 colon,49.1 µM
same,TGI,MDA-MB-435,> 56 µM
same,TGI,HS 578T breast,> 81.2 µM
same,TGI,NCI-H522 lung,44.5 µM
same,TGI,COLO 205 colon,23.5 µM
same,TGI,NCI-H23 lung,53 µM
same,TGI,EKVX NSCLC,> 89.1 µM
same,TGI,PC-3 prostate,45.5 µM
same,TGI,SK-MEL-2 melanoma,63.3 µM
same,TGI,CCRF-CEM leukemia,45 µM
same,TGI,MDA-N,> 57 µM
same,TGI,UO-31 renal,54.4 µM
same,TGI,SR leukemia,26.8 µM
same,TGI,OVCAR-5 ovarian,> 95.1 µM
same,TGI,RXF 393 renal,57.8 µM
same,TGI,MDA-MB-231 breast,37 µM
same,TGI,SK-OV-3 ovarian,77.5 µM
same,TGI,HOP-62 NSCLC,51.8 µM
same,TGI,HL-60(TB) leukemia,54.3 µM
same,TGI,U251 CNS,> 72 µM
same,TGI,ACHN renal,63.8 µM
same,TGI,DU-145 prostate,> 100 µM
same,TGI,A549 NSCLC,> 100 µM
same,TGI,OVCAR-3 ovarian,35.1 µM
same,TGI,SK-MEL-28 melanoma,> 86.6 µM
same,TGI,786-0 renal,> 100 µM
same,TGI,A498 renal,> 81.2 µM
same,TGI,CAKI-1 renal,32.7 µM
same,TGI,IGROV1 ovarian,27.5 µM
same,TGI,OVCAR-4 ovarian,> 66.2 µM
same,TGI,OVCAR-8 ovarian,> 100 µM
same,TGI,SF-539 CNS,16.3 µM
